Columns and labels:
[1] = tested on: spontaneously hypertensive rats of the Okamoto strain; assay: Hypotensive activity in spontaneously hypertensive rats (method of Chan and Poorvin); type: in vivo; conditions: by gavage, 100 mg/kg or less, second identical dose 24 hours later; MABP measured 28 hours after initial dose; average MABP of the rats used 160±1.5 mm of mercury
Procedure: The novel compounds of the present invention are active hypotensive agents and were tested for hypotensive activity by the method of P.S. Chan and D. Poorvin, Clinical and Experimental Hypertension, 1 (6), 817-830 (1979). Male, 16 week old, spontaneously hypertensive rats of the Okamoto strain, from Taconic Farms, Germantown, New York, having an average mean arterial blood pressure of 160±1.5 mm of mercury, were used in the test. One to four rats were used per test compound. A rat is dosed by gavage with a test compound suspended in 2% pre-boiled starch at a concentration of 50 mg/ml, at a dose of 100 mg/kg of body weight or less, with 0.9% sodium chloride loading at a dose of 25 ml/kg of body weight. A second identical dose of the test compound, without sodium chloride loading is given 24 hours later. At 28 hours after the initial dose the mean arterial blood pressure (MABP) is measured. The procedure is repeated in a second and third rat when necessary. The results of this test on representative compounds of the present invention appear below in Table II.

[2] = molecular target: T1, thromboxane synthetase enzyme (Rattus norvegicus, UniProt P49430); assay: Inhibition of thromboxane (TXB2) formation in washed rat platelets, TXB2 radioimmunoassay; type: biochemical, Okamoto-Aoki spontaneously hypertensive rats (SHR); conditions: Concentration 1x10^-4M, platelet suspension incubated 10 minutes at 37 °C
T1 construct: from tissue; host or cells: washed blood platelets from Okamoto-Aoki spontaneously hypertensive rats (SHR)
T1 sequence (P49430 1-533): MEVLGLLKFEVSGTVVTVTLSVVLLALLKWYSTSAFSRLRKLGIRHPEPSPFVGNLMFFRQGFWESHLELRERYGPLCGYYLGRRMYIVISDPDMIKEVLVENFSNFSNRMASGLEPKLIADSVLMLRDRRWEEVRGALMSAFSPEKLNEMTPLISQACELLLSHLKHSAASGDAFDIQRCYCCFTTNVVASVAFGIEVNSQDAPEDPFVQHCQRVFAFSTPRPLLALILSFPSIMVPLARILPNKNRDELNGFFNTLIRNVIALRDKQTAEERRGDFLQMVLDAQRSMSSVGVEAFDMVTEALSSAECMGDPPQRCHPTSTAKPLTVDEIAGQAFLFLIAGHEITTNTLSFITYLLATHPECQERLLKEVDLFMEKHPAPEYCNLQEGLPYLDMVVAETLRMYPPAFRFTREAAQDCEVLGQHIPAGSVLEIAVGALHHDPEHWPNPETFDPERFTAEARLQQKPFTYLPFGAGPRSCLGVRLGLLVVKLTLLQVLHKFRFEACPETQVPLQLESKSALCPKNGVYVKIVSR
Procedure: Under urethan anesthesia, […] of arterial blood from Okamoto-Aoki spontaneously hypertensive rats (SHR) (Taconic Farms, Germantown, NY) between 19 and 24 weeks in age is collected in one ml of 3.2% sodium citrate in a polystyrene tube. The blood is diluted with 3 ml of cold saline and centrifuged at room temperature for 15 minutes at 460xg. The platelet rich plasma (PRP) is separated. The platelets are isolated by centrifuging the PRP for 10 minutes at 1060xg and are washed in 4 ml of cold oxygenated Krebs phosphate buffer, pH 7.4. The chilled platelets, recovered from centrifuging at 800xg for 10 minutes, are resuspended in oxygenated Krebs phosphate buffer and diluted to contain 4.5-6.0 x 10⁴ platelets/µ1. The inhibition of thromboxane (TX) formation is studied by determining the concentration of thromboxane B₂ (TXB₂), the stable hydrolysis product of TXA₂. Assay samples, prepared on ice, contain 200 µ1 platelet suspension, 50 µ1 saline, and 50 µ1 vehicle (saline) or drug under study. The samples are incubated for 10 minutes at 37 °C in a metabolic shaker. The reaction is terminated by immersing the tubes in an ice bath and adding 50 µl of 0.5M citric acid. The samples are centrifuged for 10 minutes in a refrigerated centrifuge and the supernatants thus obtained are decanted and stored at -20 °C. The TXB₂ content for each sample is determined by a direct radioimmunoassay (RIA) utilizing a TXB₂ specific RIA kit purchased from New England Nuclear, Boston, MA and expressed as pg TXB₂ formed per minute per sample, from which the percent inhibition of TXB₂ formation is calculated.

[3] = tested on: Male mice of the Swiss Webster Strain; assay: Calcium chloride-induced arrhythmia in anesthetized mice (survival); type: in vivo; conditions: Mus musculus, iv, Dose = 10 mg/kg i.v.; calcium chloride 200 mg/kg i.v. bolus 5, 15 or 30 minutes after drug; observed 15 minutes; read-out: CaCl2 #Mice Surviving #Mice Tested (converted)
Source text: (§1) Intravenous administration of high doses of calcium or potassium chloride in animals produces cardiac arrhythmias, cardiac fibrillation and cardiac arrest. Any agent that can prevent these events is considered an antiarrhythmic/antifibrillatory agent. (Meth. and Find Exptl. Clin Pharmacol.2:223-252(1980); Pharmacol, Ther. 24:401-433 (1984); Experimental Cardiac and Antiarrhythmic Drugs, L. Szekeres and Gy. J. Dapp, Akademiai Kiado Preso, Budapest, 9-448 (1971).)
(§2) The method employed is as follows: Male mice of the Swiss Webster Strain (Charles River, Wilmington, MA) weighing 25-35 g are anesthetized with ethyl carbamate (urethan) (1.5g/kg body weight i.p.). A 25-gauge needle attached to PE-20 tubing is inserted into a caudal vein for drug administration. The lead II ECG is recorded by needle electrodes placed subcutaneously in the limbs. All data is collected on a Gould Brush recorder. Animals are observed 5 minutes before drug administration. A 5, 15, or 30 minute period following drug administration is allowed before the bolus injection of calcium chloride, 200 mg/kg i.v. or potassium chloride, 62.5 mg/kg i.v. Control mice receive 4 ml/kg of 0.9% sodium chloride i.v. Mice are observed an additional 15 minutes for arrhythmias, fibrillation, survival or death. Any compound at a dose of less than 20 mg/kg i.v. that protects 3 out of 6 mice from cardiac death in either the potassium or calcium chloride test, is considered active.

[4] = tested on: Male mice of the Swiss Webster Strain; assay: Potassium chloride-induced arrhythmia in anesthetized mice (survival); type: in vivo; conditions: Mus musculus, iv, Dose = 10 mg/kg i.v.; potassium chloride 62.5 mg/kg i.v. bolus 5, 15 or 30 minutes after drug; observed 15 minutes; read-out: KCl #Mice Surviving #Mice Tested (converted)
Source text: as §1, §2

Row | SMILES | Avg. MABP in mm Hg (No. of Rats) [1] | inhibition at 100 µM [2] [%] | responders at 10 mg/kg [3] [%] | responders at 10 mg/kg [4] [%]
1 | O=[N+]([O-])c1cccnc1NCCCn1ccnc1 [Example 2, N-[3-(1H-Imidazol-1-yl)propyl]-3-nitro-2-pyridinamine] | 98 (2) mm Hg | 80 | 50 | 66.7
2 | N#Cc1cccnc1NCCCn1ccnc1 [Example 4, 2-[[3-(1H-Imidazol-1-yl)propyl]amino]-3-pyridinecarbonitrile] | 117 (4) mm Hg | 93 | 66.7 | 16.7
3 | c1ccc2nc(NCCCn3ccnc3)ccc2c1 [Example 5, N-[3-(1H-Imidazol-1-yl)propyl]-2-quinolinamine] | 97 (2) mm Hg | 93 | 83.3 | 50
4 | c1ccc2c(c1)nc(NCCCn1ccnc1)c1ccccc12 [Example 8, N-[3-(1H-Imidazol-1-yl)propyl]-6-phenanthridinamine] | 103 (2) mm Hg | 100 | 33.3 | 100
5 | Cc1nc(NCCCn2ccnc2)ccc1C#N [Example 30, 6-[[3-(1H-Imidazol-1-yl)propyl]amino]-2-methyl-3-pyridinecarbonitrile] | 61 (2) mm Hg | 94 | 16.7 | 100
6 | Cc1cc(NCCCn2ccnc2)nc2c(C)cccc12 [Example 32, N-[3-(1H-Imidazol-1-yl)propyl]-4,8-dimethyl-2-quinolinamine] | 96 (2) mm Hg | 98 | 0 | 50
7 | CC(CNc1nc2ccccc2c2ccccc12)Cn1ccnc1 (centres unmarked) [Example 86, N-[3-(1H-Imidazol-1-yl)-2-methylpropyl]-6-phenanthridinamine] | 114 (2) mm Hg | 100 | 16.7 | 50
8 | Cc1cc(NCC(C)Cn2ccnc2)nc2ccccc12 (centres unmarked) [Example 88, N-[3-(1H-Imidazol-1-yl)-2-methylpropyl]-4-methyl-2-quinolinamine] | 96 (2) mm Hg | 98 | 16.7 | 83.3
9 | Cc1cc(NCCCc2cccnc2)nc2ccccc12.Cl.Cl [Example 98, 4-Methyl-N-[3-(3-pyridinyl)propyl]-2-quinolinamine, dihydrochloride] | 95 (2) mm Hg |  | 83.3 | 83.3
